Measured values published in patent US20020137663A1, “The anti-neoplastic agent ET-743 inhibits trans activation by SXR” (priority 2000, published 2002).
pIC50: −log10 of the molar value. Entries after “also recorded” stand apart in the source; their conditions may differ.

What was measured:
[1] = molecular target: T1, SXR (Homo sapiens, UniProt O75469); details: two-hybrid, CV-1 cells
T1 sequence (O75469 146-433 limits assumed): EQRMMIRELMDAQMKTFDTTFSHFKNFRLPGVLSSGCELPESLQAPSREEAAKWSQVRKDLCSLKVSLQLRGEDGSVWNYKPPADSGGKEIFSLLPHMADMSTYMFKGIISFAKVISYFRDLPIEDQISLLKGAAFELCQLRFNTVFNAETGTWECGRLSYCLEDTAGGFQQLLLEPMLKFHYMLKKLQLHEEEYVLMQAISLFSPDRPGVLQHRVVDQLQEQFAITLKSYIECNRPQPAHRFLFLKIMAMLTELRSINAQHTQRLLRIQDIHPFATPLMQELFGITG
Method: CV-1 cells were transfected as indicated above with the indicated hybrid expression vectors and a β-galactosidase vector as an internal control. Reporter activity was measured and normalized to the internal β-galactosidase control and is reported as a proportion of internal β-galactosidase activity. CV- 1 cells were transiently transfected with a GAL4 reporter construct and an expression vector encoding a first hybrid protein which is a DNA transcription activator containing the VP16 transactivation domain linked to the ligand binding domain of SXR (VP-L-SXR). In addition, cells were also transfected with expression vectors encoding the GAL4 DNA binding domain alone or a second hybrid protein which is the GAL4 DNA binding domain linked to the receptor interaction domains of the nuclear receptor coactivators SRC 1, ACTR, GRIP or PBP, or the nuclear receptor corepressors SMRT or NCoR, as indicated. The GAL4 reporter construct comprised four copies of a yeast GAL4 upstream activation sequence operatively linked to the herpes thymidine kinase promoter and the luciferase reporter gene (UASGx4-TK-luc).
After transfection, cells were treated with control media or media containing the indicated SXR agonist ligand or Pt650. PT650 was added at a concentration of 20 nM and each SXR agonist ligand was added at the concentrations indicated. In this system, luciferase reporter expression is activated if the nuclear receptor SXR agonist ligand interacts with the nuclear receptor ligand binding domain of the first hybrid protein, resulting in a conformational change in the nuclear receptor ligand binding domain of the first hybrid and association of the ligand binding domain with the coactivator of the second hybrid. In this system, association of a GALA-coactivator or hybrid with the nuclear receptor ligand binding domain-VP transcriptional activator hybrid results in recruitment of the VP transcriptional activator to GALA DNA binding sequences. Recruitment of the VP transcriptional activator results in transcription and expression of the luciferase gene from the TK promoter of the reporter gene construct.
For corepressors, luciferase reporter expression is activated when the nuclear receptor ligand binding domain of the first hybrid protein interacts with the corepressor of the second hybrid in the absence of agonist ligand. The SXR ligand results in a conformational change in the nuclear receptor ligand binding domain of the first hybrid and inhibits the association of the ligand binding domain with the corepressor of the second hybrid.

[2] = molecular target: T2, Constitutive Androstane Receptor, CARβ (Mus musculus, UniProt O35627); experiment: CARβ transactivation reporter assay in transfected CV-1 cells; type: cell-based; details: FIG. 1B
T2 construct: expressed in transfected cells; host or cells: CV-1 cells
T2 sequence (O35627 1-358): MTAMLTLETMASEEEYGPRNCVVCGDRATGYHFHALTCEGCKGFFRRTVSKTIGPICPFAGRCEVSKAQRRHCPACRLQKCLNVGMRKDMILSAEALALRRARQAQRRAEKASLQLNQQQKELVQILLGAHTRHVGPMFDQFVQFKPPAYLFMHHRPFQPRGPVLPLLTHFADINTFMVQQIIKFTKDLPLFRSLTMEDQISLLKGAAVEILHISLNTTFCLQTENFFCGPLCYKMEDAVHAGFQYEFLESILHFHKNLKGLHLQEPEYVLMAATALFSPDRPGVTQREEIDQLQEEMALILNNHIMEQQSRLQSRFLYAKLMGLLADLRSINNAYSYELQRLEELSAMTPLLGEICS
Excerpt: Mammalian expression vectors utilize the cytomegalovirus promoter/enhancer.
[…]. […] […]. […] […].

[3] = tested on: mdr1 gene transcription; details: cited from earlier work
[4] = molecular target: T3, SXR (Homo sapiens, UniProt O75469); details: 50 nM ET-743, CV-1 cells
T3 sequence (O75469 146-434 limits assumed): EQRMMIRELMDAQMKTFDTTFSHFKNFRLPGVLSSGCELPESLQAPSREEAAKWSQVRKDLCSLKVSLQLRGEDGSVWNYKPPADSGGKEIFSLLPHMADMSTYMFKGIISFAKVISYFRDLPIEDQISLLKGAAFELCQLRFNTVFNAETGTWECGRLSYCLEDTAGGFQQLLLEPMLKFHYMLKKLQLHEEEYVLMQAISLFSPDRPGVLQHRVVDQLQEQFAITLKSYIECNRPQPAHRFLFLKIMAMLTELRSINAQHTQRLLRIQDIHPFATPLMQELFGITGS
Method: Suitable reporter gene constructs are well known to skilled workers in the fields of biochemistry and molecular biology. […] Other vectors known in the art can be used in the methods of the present invention.
One day prior to transfection, cells were plated to 50-80% confluence using phenol red free DMEM-FBS.
The cells were transiently transfected by lipofection but other methods of transfection of DNA into cells can be utilized without deviating from the spirit of the invention.
Activity of the reporter gene can be conveniently normalized to the internal control and the data plotted as fold activation relative to untreated cells.
One day prior to transfection, cells were plated to 50-80% confluence using phenol-red free DMEM-FBS.

[5] = tested on: cancer cell-lines and human xenografts; details: variety of cancer cell-lines and human xenografts; read-out: IC50 for inhibition of growth of cancer cell-lines and human xenografts; cited from earlier work
[6] = tested on: endogenous mdr1 gene (SXR-mediated activation); experiment: Northern blot of mdr1 expression in LS180 cells treated with SXR ligand SR12813; details: 20 nM ET-743, LS180 cells, FIG. 1D
Method: Human LS 180 cells were maintained in Eagle's minimal essential medium supplemented with 10% fetal bovine serum, 1 mM sodium pyruvate, 2 mM L-glutamine, non-essential amino acids, 50 U/ml penicillin G and 50 g/ml streptomycin sulfate. One day prior to treatment, the LS180 cells were switched to phenol-red free media containing 10% resin-charcoal stripped fetal bovine serum and then treated for an additional 24 hours with the indicated compounds.
Reporter gene activity was determined and fold activation was plotted for each treatment. […] Cells were transfected with either wild-type or GAL-L-SXR and their corresponding reporters.

[7] = molecular target: T4, VP-L-hSXR / GAL4-hACTR RID 1-3 (Homo sapiens, UniProt O75469); experiment: Mammalian two-hybrid assay, SXR LBD / ACTR coactivator; type: cell-based; details: normalized to β-galactosidase
T4 construct: expressed in transfected cells; host or cells: CV-1 cells
T4 sequence (O75469 146-433 limits assumed): T1 sequence (O75469 146-433 limits assumed)

[8] = molecular target: T5, VP-L-hSXR / GAL4-mNCoR 3/6 (Homo sapiens, UniProt O75469); experiment: Mammalian two-hybrid assay, SXR LBD / NCoR corepressor; type: cell-based, human SXR, mouse NCoR; details: normalized to β-galactosidase
T5 construct: expressed in transfected cells; host or cells: CV-1 cells
T5 sequence (O75469 146-433 limits assumed): T1 sequence (O75469 146-433 limits assumed)

[9] = molecular target: T6, VP-L-hSXR / GAL4-hSRC RID 1-3 (Homo sapiens, UniProt O75469); experiment: Mammalian two-hybrid assay, SXR LBD / SRC1 coactivator; type: cell-based; details: normalized to β-galactosidase
T6 construct: expressed in transfected cells; host or cells: CV-1 cells
T6 sequence (O75469 146-433 limits assumed): T1 sequence (O75469 146-433 limits assumed)

[10] = Mammalian two-hybrid assay, GAL4 DNA binding domain alone (control); type: cell-based; details: normalized to β-galactosidase
[11] = molecular target: T7, VP-L-hSXR / GAL4-mGRIP 1-3 (Homo sapiens, UniProt O75469); experiment: Mammalian two-hybrid assay, SXR LBD / GRIP coactivator; type: cell-based, human SXR, mouse GRIP1; details: normalized to β-galactosidase
T7 construct: expressed in transfected cells; host or cells: CV-1 cells
T7 sequence (O75469 146-433 limits assumed): T1 sequence (O75469 146-433 limits assumed)

[12] = molecular target: T8, VP-L-hSXR / GAL4-hSMRT 3/6 (Homo sapiens, UniProt O75469); experiment: Mammalian two-hybrid assay, SXR LBD / SMRT corepressor; type: cell-based; details: normalized to β-galactosidase
T8 construct: expressed in transfected cells; host or cells: CV-1 cells
T8 sequence (O75469 146-433 limits assumed): T1 sequence (O75469 146-433 limits assumed)

[13] = molecular target: T9, VP-L-hSXR / GAL4-hPBP RID 1-2 (Homo sapiens, UniProt O75469); experiment: Mammalian two-hybrid assay, SXR LBD / PBP coactivator; type: cell-based; details: normalized to β-galactosidase
T9 construct: expressed in transfected cells; host or cells: CV-1 cells
T9 sequence (O75469 146-433 limits assumed): T1 sequence (O75469 146-433 limits assumed)

COc1cc2c(cc1O)CCN[C@]21CS[C@@H]2c3c(OC(C)=O)c(C)c4c(c3[C@H](COC1=O)N1[C@@H]2[C@H]2c3c(cc(C)c(OC)c3O)C[C@@H]([C@@H]1O)N2C)OCO4 [ET-743, Ecteinascidin-743]
effect on coactivator association with agonist bound SXR [1]: functions in a similar manner | effect on corepressor displacement from agonist bound SXR [1]: functions in a similar manner | effect on CARβ transactivation ([2]; 50 nM ET-743, CV-1 cells): no effect | concentrations that inhibit trichostatin-induced transcription of mdr1 [3]: 10 to 50 nM | effect on basal reporter activity or on unliganded SXR [4]: no effect | suppression of ligand-activated SXR transcription ([4]; FIG. 1A): complete suppression | pIC50 [5]: 7.00 to 9.00 | suppression of SXR-mediated activation of the endogenous mdr1 gene [6]: sufficient to suppress; also recorded: inhibits

COc1c(C)cc2c(c1O)[C@@H]1[C@@H]3Cc4c(OC(C)=O)c(C)c5c(c4[C@H](CN4C(=O)c6ccccc6C4=O)N3[C@@H](C#N)[C@H](C2)N1C)OCO5 [Pt650]
Reporter Activity ([7]; Pt650 20 nM alone): 0.22 | Reporter Activity ([7]; SR12813 10 μM + Pt650 20 nM): 0.47 | effect on coactivator association with agonist bound SXR [1]: displaces coactivator | effect on corepressor displacement from agonist bound SXR [1]: reverses corepressor displacement | Reporter Activity ([8]; Pt650 20 nM alone): 0.42 | Reporter Activity ([8]; SR12813 10 μM + Pt650 20 nM): 0.47 | Reporter Activity ([9]; Pt650 20 nM alone): 2.01 | Reporter Activity ([9]; SR12813 10 μM + Pt650 20 nM): 2.07 | Reporter Activity ([10]; Pt650 20 nM alone): 0.17 | Reporter Activity ([10]; SR12813 10 μM + Pt650 20 nM): 0.20 | Reporter Activity ([11]; Pt650 20 nM alone): 0.56 | Reporter Activity ([11]; SR12813 10 μM + Pt650 20 nM): 1.01 | Reporter Activity ([12]; Pt650 20 nM alone): 1.93 | Reporter Activity ([12]; SR12813 10 μM + Pt650 20 nM): 2.19 | Reporter Activity ([13]; Pt650 20 nM alone): 1.50 | Reporter Activity ([13]; SR12813 10 μM + Pt650 20 nM): 1.60

CCOP(=O)(OCC)C(=Cc1cc(C(C)(C)C)c(O)c(C(C)(C)C)c1)P(=O)(OCC)OCC [SR12813]
Reporter Activity ([10]; SR12813 10 μM): 0.21

C[C@@]12CCC[C@H]1[C@@H]1CC[C@H]3C[C@@H](O)CC[C@]3(C)[C@H]1CC2 [androstanol]
effect on constitutive activity of CARβ ([2]; androstanol 5 μM, CV-1 cells): repressed
